Source: patent EP4745134A1 (Jiangsu Yahong Meditech Co., Ltd., priority 2023, dated 2025)
One block for each compound: values may come before it.

Assays:
PRMT5-MTA = PRMT5-MTA (Homo sapiens, UniProt O14744); assay: Enzymatic inhibitory activity against PRMT5-MTA (AlphaScreen); format: biochemical; conditions: read-out: IC50
How it was run: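 PRMT5/[…] (1 nM) was preincubated for 30 min at room temperature with 1 µM […] and 2.5 µM SAM, then exposed to compound (10-point, 3-fold from 1000 nM) for 15 min at 23 °C. Histone H4 substrate (5 nM) was added and reacted for 45 min at 23 °C. Symmetric dimethyl-R3 H4 was detected by AlphaScreen and IC50 calculated.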

HCT116 MTAP KO cells = assay: Inhibitory activity against cell proliferation (CellTiter Glo, 6 days), HCT116 MTAP KO; format: cell-based; conditions: for IC50: Homo sapiens, HCT-116, 144 h, HCT116 MTAP KO cells, 6 days, CellTiter Glo, read-out: HCT116 MTAP KO IC50; for Selectivity HCT 116-WT/ HCT116 MTAP KO: ratio of IC50 HCT116-WT / HCT116 MTAP KO
How it was run: (§1)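 Cells were seeded at 250 per well in McCoy's 5A with 10% FBS and left overnight at 37°C, 5% CO2. Compounds were added as 8-point, 4-fold dilutions from 10000 nM, with DMSO-only controls, for 6 days. IC50 values came from CellTiter Glo luminescence.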

HCT116-WT cells = assay: Inhibitory activity against cell proliferation (CellTiter Glo, 6 days), HCT116-WT; format: cell-based; conditions: 144 h, HCT116-WT cells, 6 days, CellTiter Glo; read-out: HCT116-WT IC50
How it was run: as §1

Chain of PRMT5-MTA (O14744 whole entry): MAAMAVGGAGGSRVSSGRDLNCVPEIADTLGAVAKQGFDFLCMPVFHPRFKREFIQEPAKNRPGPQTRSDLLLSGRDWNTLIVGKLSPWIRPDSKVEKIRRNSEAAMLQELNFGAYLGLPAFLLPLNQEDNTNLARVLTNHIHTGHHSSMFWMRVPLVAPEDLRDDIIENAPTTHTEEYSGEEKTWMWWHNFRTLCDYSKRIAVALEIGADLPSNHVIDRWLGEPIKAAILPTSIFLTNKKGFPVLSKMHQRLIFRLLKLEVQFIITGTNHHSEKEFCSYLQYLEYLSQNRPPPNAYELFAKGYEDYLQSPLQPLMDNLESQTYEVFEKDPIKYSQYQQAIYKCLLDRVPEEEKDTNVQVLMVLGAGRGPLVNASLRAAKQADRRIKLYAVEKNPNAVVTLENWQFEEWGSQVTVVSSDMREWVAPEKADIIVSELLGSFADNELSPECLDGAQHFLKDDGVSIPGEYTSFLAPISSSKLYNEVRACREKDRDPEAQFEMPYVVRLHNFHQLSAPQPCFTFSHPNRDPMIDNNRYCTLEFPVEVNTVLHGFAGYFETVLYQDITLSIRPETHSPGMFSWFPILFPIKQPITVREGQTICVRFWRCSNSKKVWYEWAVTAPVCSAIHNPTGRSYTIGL
Chain of PRMT5-MTA (Q9BQA1 whole entry partner): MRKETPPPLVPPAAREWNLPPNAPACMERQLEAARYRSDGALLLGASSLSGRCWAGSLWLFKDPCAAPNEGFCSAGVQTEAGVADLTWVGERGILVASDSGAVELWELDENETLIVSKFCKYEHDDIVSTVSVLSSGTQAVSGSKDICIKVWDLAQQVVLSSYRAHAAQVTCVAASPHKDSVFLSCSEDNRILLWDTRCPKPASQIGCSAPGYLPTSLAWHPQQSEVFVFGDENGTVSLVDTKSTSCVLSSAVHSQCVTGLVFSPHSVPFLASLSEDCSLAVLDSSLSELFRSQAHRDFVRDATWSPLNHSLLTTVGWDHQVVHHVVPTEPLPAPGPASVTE

Compound: CCc1cc2cc(C(=O)N(Cc3ccc(C(F)(F)F)cn3)N(C)c3ncccn3)ccc2nc1N [Example 305, 2-amino-3-ethyl-N'-methyl-N'-(pyrimidin-2-yl)-iN-((5-(trifluoromethyl)pyridin-2-yl)methyl)quinoline-6-carbohydrazide]
IC50 (PRMT5-MTA): 2.3 nM
IC50 (HCT116 MTAP KO cells): 85 nM
Selectivity HCT 116-WT/ HCT116 MTAP KO (HCT116 MTAP KO cells): 19.60
IC50 (HCT116-WT cells): 1670 nM

Compound: [2H]c1nc(C)c(-c2ccc(CN(C(=O)c3ccc4nc(N)c(C)cc4c3)N(c3ncccn3)C3CC3)nc2)s1 [Example 238, 2-amino-N'-cyclopropyl-3-methyl-N-((5-(4-methylthiazol-5-yl-2d)pyridin-2-yl)methyl)-N'-(pyrimidin-2-yl)quinoline-6-carbohydrazide]
IC50 (PRMT5-MTA): 5.7 nM
IC50 (HCT116 MTAP KO cells): 5.1 nM
Selectivity HCT 116-WT/ HCT116 MTAP KO (HCT116 MTAP KO cells): 21.96
IC50 (HCT116-WT cells): 112 nM

Compound: CC1CN(C(=O)c2cc3c(cc2Cl)nc(N)c2cnn(C)c23)N(c2ccccc2F)C1 (centres unmarked) [Example 386, (4-amino-7-chloro-1-methyl-1H-pyrazolo [4,3-c]quinolin-8-yl)(2-(2-fluorophenyl)-4-methylpyrazolidin-1-yl)methanone]
IC50 (PRMT5-MTA): 6.2 nM
IC50 (HCT116 MTAP KO cells): 13 nM
Selectivity HCT 116-WT/ HCT116 MTAP KO (HCT116 MTAP KO cells): 25.85
IC50 (HCT116-WT cells): 336 nM

Compound: [2H]C([2H])([2H])c1cc2cc(C(=O)N(Cc3ccc(-c4cncs4)cn3)N(C)c3ncccn3)ccc2nc1N [Example 318, 2-amino-N'-methyl-3-(methyl-D3)-N'-(pyrimidin-2-yl)-N-((5-(thiazol-5-yl)pyridin-2-yl)methyl)quinoline-6-carbohydrazide]
IC50 (PRMT5-MTA): 6.3 nM
IC50 (HCT116 MTAP KO cells): 16 nM
Selectivity HCT 116-WT/ HCT116 MTAP KO (HCT116 MTAP KO cells): 21.13
IC50 (HCT116-WT cells): 338 nM

Compound: Cc1cc2cc(C(=O)N(Cc3ccc(-c4scnc4CF)cn3)N(C)c3ncccn3)ccc2nc1N [Example 242, 2-amino-N-((5-(4-(fluoromethyl)thiazol-5-yl)pyridin-2-yl)methyl)-N',3-dimethyl-N'-(pyrimidin-2-yl)quinoline-6-carbohydrazide]
IC50 (PRMT5-MTA): 5.9 nM
IC50 (HCT116 MTAP KO cells): 8.4 nM
Selectivity HCT 116-WT/ HCT116 MTAP KO (HCT116 MTAP KO cells): 27.98
IC50 (HCT116-WT cells): 235 nM

Compound: Cc1cc2nc(N)c3cnn(C)c3c2cc1C(=O)N1CCCN1c1ncc(-c2cncs2)cc1F [Example 474, (4-amino-1,7-dimethyl-1H-pyrazolo[4,3-c]quinolin-8-yl)(2-(3-fluoro-5-(thiazol-5-yl)pyridin-2-yl)pyrazolidin-1-yl)methanone]
IC50 (PRMT5-MTA): 7 nM
IC50 (HCT116 MTAP KO cells): 28 nM
Selectivity HCT 116-WT/ HCT116 MTAP KO (HCT116 MTAP KO cells): 33.18
IC50 (HCT116-WT cells): 929 nM

Compound: Cc1cc2cc(C(=O)N(Cc3ccc(-c4scnc4C(F)F)cn3)N(c3ncccn3)C3CC3)ccc2nc1N [Example 239, 2-amino-N'-cyclopropyl-N-((5-(4-(difluoromethyl)thiazol-5-yl)pyridin-2-yl)methyl)-3-methyl-N'-(pyrimidin-2-yl)quinoline-6-carbohydrazide]
IC50 (PRMT5-MTA): 7.3 nM
IC50 (HCT116 MTAP KO cells): 14 nM
Selectivity HCT 116-WT/ HCT116 MTAP KO (HCT116 MTAP KO cells): 18.64
IC50 (HCT116-WT cells): 261 nM

Compound: Cc1cc2cc(C(=O)N(Cc3ncc(Br)cc3F)N(C)c3ncccn3)ccc2nc1N [Example 277, 2-amino-N-((5-bromo-3-fluoropyridin-2-yl)methyl)-N',3-dimethyl-N'-(pyrimidin-2-yl)quinoline-6-carbohydrazide]
IC50 (PRMT5-MTA): 2.2 nM
IC50 (HCT116 MTAP KO cells): 79 nM
Selectivity HCT 116-WT/ HCT116 MTAP KO (HCT116 MTAP KO cells): 24.23
IC50 (HCT116-WT cells): 1910 nM

Compound: Cc1cc2cc(C(=O)N(Cc3ccc(C(F)(F)F)cn3)N(C)c3nccc4occc34)ccc2nc1N [Example 42, 2-amino-N'-(furo[3,2-c]pyridin-4-yl)-N', 3-dimethyl-N-((5-(trifluoromethyl)pyridin-2-yl)methyl)quinoline-6-carbohydrazide]
IC50 (PRMT5-MTA): 3 nM
IC50 (HCT116 MTAP KO cells): 49 nM
Selectivity HCT 116-WT/ HCT116 MTAP KO (HCT116 MTAP KO cells): 54.14
IC50 (HCT116-WT cells): 2650 nM

Compound: Cc1cc2nc(N)c3cnn(C)c3c2cc1C(=O)N1CCCN1c1ncc(-c2cscn2)cc1F [Example 486, (4-amino-1,7-dimethyl-1H-pyrazolo[4,3-c]quinolin-8-yl)(2-(3-fluoro-5-(thiazol-4-yl)pyridin-2-yl)pyrazolidin-1-yl)methanone]
IC50 (PRMT5-MTA): 6.8 nM
IC50 (HCT116 MTAP KO cells): 34 nM
Selectivity HCT 116-WT/ HCT116 MTAP KO (HCT116 MTAP KO cells): 41.12
IC50 (HCT116-WT cells): 1400 nM

IC50 (PRMT5-MTA): 5.1 nM
IC50 (HCT116 MTAP KO cells): 246 nM
IC50 (HCT116-WT cells): > 10000 nM
Compound: CCN(C(=O)c1cc2c(cc1F)nc(N)c1cnn(C)c12)N(C)c1ccc(F)cn1 [Example 97, 4-amino-N-ethyl-7-fluoro-N'-(5-fluoropyridin-2-yl)-N',1-dimethyl-1H-pyrazolo[4,3-c]quinoline-8-carbohydrazide]

Compound: Cc1cc2cc(C(=O)N(Cc3ccc(C(F)(F)F)cn3)N(C)c3nccc4nccnc34)ccc2nc1N [Example 107, 2-amino-N',3-dimethyl-N'-(pyrido[3,4-b]pyrazin-5-yl)-N-((5-(trifluoromethyl)pyridin-2-yl)methyl)quinoline-6-carbohydrazide]
IC50 (PRMT5-MTA): 2.5 nM
IC50 (HCT116 MTAP KO cells): 46 nM
Selectivity HCT 116-WT/ HCT116 MTAP KO (HCT116 MTAP KO cells): 35.15
IC50 (HCT116-WT cells): 1620 nM

Compound: Cc1cc2cc(C(=O)N(Cc3ccc(C(F)(F)F)cn3)N(C)c3ncccc3F)ccc2nc1N [Example 5, 2-amino-N'-(3-fluoropyridin-2-yl)-N',3-di methyl-N-((5-(trifluoromethyl)pyridin-2-yl)methyl)quinoline-6-carbohydrazide]
IC50 (PRMT5-MTA): 1.5 nM
IC50 (HCT116 MTAP KO cells): 42 nM
Selectivity HCT 116-WT/ HCT116 MTAP KO (HCT116 MTAP KO cells): 20.29
IC50 (HCT116-WT cells): 852 nM

Compound: Cc1cc2cc(C(=O)N(Cc3ccc(-c4cnn(CF)c4)cn3)N(C)c3ncccn3)ccc2nc1N [Example 233, 2-amino-N-((5-(1-(fluoromethyl)-1H-pyrazol-4-yl)pyridin-2-yl)methyl)-N',3-dimet hyl-N'-(pyrimidin-2-yl)quinoline-6-carbo hydrazide]
IC50 (PRMT5-MTA): 4.4 nM
IC50 (HCT116 MTAP KO cells): 39 nM
Selectivity HCT 116-WT/ HCT116 MTAP KO (HCT116 MTAP KO cells): 26.28
IC50 (HCT116-WT cells): 1020 nM

Compound: C=C1CN(C(=O)c2cc3c(cc2Cl)nc(N)c2cnn(C)c23)N(c2ccccc2F)C1 [Example 431, (4-amino-7-chloro-1-methyl-1H-pyrazolo [4,3-c]quinolin-8-yl)(2-(2-fluorophenyl)-4-methylenepyrazolidin-1-yl)methanone]
IC50 (PRMT5-MTA): 5.4 nM
IC50 (HCT116 MTAP KO cells): 10 nM
Selectivity HCT 116-WT/ HCT116 MTAP KO (HCT116 MTAP KO cells): 24.80
IC50 (HCT116-WT cells): 248 nM

Compound: Cc1cc2nc(N)c3cnn(C)c3c2cc1C(=O)N1C[C@H](C)CN1c1ncccc1F (single isomer, unassigned) [Example 465]
IC50 (PRMT5-MTA): 3.4 nM
IC50 (HCT116 MTAP KO cells): 23 nM
Selectivity HCT 116-WT/ HCT116 MTAP KO (HCT116 MTAP KO cells): 45.35
IC50 (HCT116-WT cells): 1040 nM

Compound: Cc1cc2cc(C(=O)N(Cc3ccc(-c4cncs4)cn3)N(c3ncccn3)C3CC3)ccc2nc1N [Example 215, 2-amino-N'-cyclopropyl-3-methyl-N'-(pyrimidin-2-yl)-N-((5-(thiazol-5-yl)pyridin-2-yl)methyl)quinoline-6-carbohydrazide]
IC50 (PRMT5-MTA): 5.3 nM
IC50 (HCT116 MTAP KO cells): 7.1 nM
Selectivity HCT 116-WT/ HCT116 MTAP KO (HCT116 MTAP KO cells): 25.07
IC50 (HCT116-WT cells): 178 nM

Compound: Nc1nc2ccc(C(=O)N(Cc3ccc(C(F)(F)F)cn3)N(c3ncccn3)C3CC3)cc2cc1CO [Example 320, 2-amino-N'-cyclopropyl-3-(hydroxymethyl)-N'-(pyrimidin-2-yl)-N-((5-(trifluoromethyl)pyridin-2-yl)methyl)quinoline-6-carbohydrazide]
IC50 (PRMT5-MTA): 5.5 nM
IC50 (HCT116 MTAP KO cells): 102 nM
Selectivity HCT 116-WT/ HCT116 MTAP KO (HCT116 MTAP KO cells): 24.70
IC50 (HCT116-WT cells): 2520 nM
